Test results: the supplement of paper PMC11451515

Columns and labels:
Settings in all cases: 48 h
NOMO1 [1] = assay: cell viability relative to DMSO control; higher = less cytotoxic
Method in brief: (§1)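 NOMO1, SEM and P12-Ichikawa leukemia cells spent at least four passages adapting to each medium before use. They were seeded at 500 cells/well (NOMO1, SEM) or 1000 cells/well (P12-Ichikawa) in 5 μl in 1536-well plates and pin-dosed with library compounds in DMSO at 11 threefold steps from 47 μM down to 0.79 nM. After 48 h at 37°C, CellTiter-Glo One luminescence was read. Viability is reported as a percentage of the DMSO wells on each plate, with cell-free wells as background.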

P12-Ichikawa [2] = assay: as above
Method in brief: as §1

SEM cells [3] = assay: as above
Method in brief: as §1

NOMO1 [4] = assay: AUC of viability dose-response curve (% viability x log10 dose units); higher = less sensitive
Method in brief: (§2)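 Medium-adapted leukemia cells in 1536-well plates, at 500 or 1000 cells/well, were incubated for 48 h at 37°C with library compounds in DMSO at 11 threefold doses from 47 μM to 0.79 nM. CellTiter-Glo One luminescence normalised per plate to DMSO and cell-free wells was fitted with a four-parameter log-logistic model over log10 doses. Area under the curve was integrated from this fit by trapezoidal rule, with curves beyond full viability scaled and failed quality-control curves removed.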

P12-Ichikawa [5] = assay: as above
Method in brief: as §2

SEM cells [6] = assay: as above
Method in brief: as §2

COc1ccc(Cc2nccc3cc(OC)c(OC)cc23)cc1OC
cell viability [%]
Settings | NOMO1 [1] | P12-Ichikawa [2] | SEM cells [3]
HPLM + 10% dialyzed FBS, 0.000781 µM | – | 122 | 105
HPLM + 10% dialyzed FBS, 0.00234 µM | – | 120 | 126
HPLM + 10% dialyzed FBS, 0.00702 µM | – | 117 | 111
HPLM + 10% dialyzed FBS, 0.0211 µM | – | 120 | 131
HPLM + 10% dialyzed FBS, 0.0632 µM | – | 125 | 126
HPLM + 10% dialyzed FBS, 0.19 µM | – | 122 | 124
HPLM + 10% dialyzed FBS, 0.569 µM | – | 119 | 127
HPLM + 10% dialyzed FBS, 1.71 µM | – | 116 | 128
HPLM + 10% dialyzed FBS, 5.12 µM | – | 115 | 134
HPLM + 10% dialyzed FBS, 15.4 µM | – | 107 | 121
HPLM + 10% dialyzed FBS, 46.1 µM | – | 96.5 | 88
RPMI 5 mM glucose + 10% FBS, 0.000781 µM | 115 | – | 110
RPMI 5 mM glucose + 10% FBS, 0.00234 µM | 118 | – | 125
RPMI 5 mM glucose + 10% FBS, 0.00702 µM | 124 | – | 117
RPMI 5 mM glucose + 10% FBS, 0.0211 µM | 117 | – | 120
RPMI 5 mM glucose + 10% FBS, 0.0632 µM | 105 | – | 131
RPMI 5 mM glucose + 10% FBS, 0.19 µM | 108 | – | 130
RPMI 5 mM glucose + 10% FBS, 0.569 µM | 138 | – | 118
RPMI 5 mM glucose + 10% FBS, 1.71 µM | 110 | – | 109
RPMI 5 mM glucose + 10% FBS, 5.12 µM | 103 | – | 123
RPMI 5 mM glucose + 10% FBS, 15.4 µM | 114 | – | 110
RPMI 5 mM glucose + 10% FBS, 46.1 µM | 23.3 | – | 53.9
RPMI 5 mM glucose + 10% dialyzed FBS, 0.000781 µM | – | 121 | 109
RPMI 5 mM glucose + 10% dialyzed FBS, 0.00234 µM | – | 114 | 107
RPMI 5 mM glucose + 10% dialyzed FBS, 0.00702 µM | – | 126 | 110
RPMI 5 mM glucose + 10% dialyzed FBS, 0.0211 µM | – | 126 | 110
RPMI 5 mM glucose + 10% dialyzed FBS, 0.0632 µM | – | 123 | 99.5
RPMI 5 mM glucose + 10% dialyzed FBS, 0.19 µM | – | 126 | 109
RPMI 5 mM glucose + 10% dialyzed FBS, 0.569 µM | – | 121 | 105
RPMI 5 mM glucose + 10% dialyzed FBS, 1.71 µM | – | 119 | 118
RPMI 5 mM glucose + 10% dialyzed FBS, 5.12 µM | – | 105 | 94
RPMI 5 mM glucose + 10% dialyzed FBS, 15.4 µM | – | 111 | 111
RPMI 5 mM glucose + 10% dialyzed FBS, 46.1 µM | – | 78.5 | 54.3

AUC of viability dose-response curve
Settings | NOMO1 [4] | P12-Ichikawa [5] | SEM cells [6]
HPLM + 10% dialyzed FBS | 453 | 462 | 469
RPMI 5 mM glucose + 10% FBS | 458 | 466 | 460
RPMI 5 mM glucose + 10% dialyzed FBS | 454 | 458 | 465

CC#C[C@]1(O)CC[C@H]2[C@@H]/3CCC/4=C/C(=O)CCC4=C3[C@H](C[C@]12C)C5=CC=C(C=C5)N(C)C
cell viability [%]
Settings | NOMO1 [1] | P12-Ichikawa [2] | SEM cells [3]
HPLM + 10% dialyzed FBS, 0.000781 µM | 95.5 | 101 | 76.6
HPLM + 10% dialyzed FBS, 0.00234 µM | 99.9 | 101 | 74.8
HPLM + 10% dialyzed FBS, 0.00702 µM | 101 | 103 | 88.3
HPLM + 10% dialyzed FBS, 0.0211 µM | 102 | 105 | 80.4
HPLM + 10% dialyzed FBS, 0.0632 µM | 103 | 107 | 68.9
HPLM + 10% dialyzed FBS, 0.19 µM | 96.1 | 110 | 87.4
HPLM + 10% dialyzed FBS, 0.569 µM | 102 | 107 | 84.1
HPLM + 10% dialyzed FBS, 1.71 µM | 94.8 | 98.7 | 89.9
HPLM + 10% dialyzed FBS, 5.12 µM | 79.3 | 102 | 89.9
HPLM + 10% dialyzed FBS, 15.4 µM | 9.1 | 75.1 | 86.1
HPLM + 10% dialyzed FBS, 46.1 µM | 6.71 | 73.1 | 58.7
RPMI 5 mM glucose + 10% FBS, 0.000781 µM | 83.5 | 95.6 | 76
RPMI 5 mM glucose + 10% FBS, 0.00234 µM | 95.2 | 108 | 84.6
RPMI 5 mM glucose + 10% FBS, 0.00702 µM | 91.3 | 105 | 99.9
RPMI 5 mM glucose + 10% FBS, 0.0211 µM | 86.2 | 104 | 102
RPMI 5 mM glucose + 10% FBS, 0.0632 µM | 90 | 105 | 96
RPMI 5 mM glucose + 10% FBS, 0.19 µM | 88.1 | 93.9 | 86.3
RPMI 5 mM glucose + 10% FBS, 0.569 µM | 93.4 | 106 | 105
RPMI 5 mM glucose + 10% FBS, 1.71 µM | 95.5 | 87.4 | 92.7
RPMI 5 mM glucose + 10% FBS, 5.12 µM | 73.2 | 83.4 | 96.1
RPMI 5 mM glucose + 10% FBS, 15.4 µM | 9.23 | 61.2 | 73
RPMI 5 mM glucose + 10% FBS, 46.1 µM | 5.91 | 30.8 | 58.3
RPMI 5 mM glucose + 10% dialyzed FBS, 0.000781 µM | 90.7 | 80 | 87.2
RPMI 5 mM glucose + 10% dialyzed FBS, 0.00234 µM | 81.5 | 94 | 91.6
RPMI 5 mM glucose + 10% dialyzed FBS, 0.00702 µM | 88.7 | 92.7 | 101
RPMI 5 mM glucose + 10% dialyzed FBS, 0.0211 µM | 97.2 | 98.9 | 110
RPMI 5 mM glucose + 10% dialyzed FBS, 0.0632 µM | 110 | 102 | 92
RPMI 5 mM glucose + 10% dialyzed FBS, 0.19 µM | 90.3 | 97.6 | 90.3
RPMI 5 mM glucose + 10% dialyzed FBS, 0.569 µM | 93 | 93 | 96
RPMI 5 mM glucose + 10% dialyzed FBS, 1.71 µM | 85.4 | 95.9 | 84
RPMI 5 mM glucose + 10% dialyzed FBS, 5.12 µM | 70.9 | 83 | 92.8
RPMI 5 mM glucose + 10% dialyzed FBS, 15.4 µM | 9.38 | 51.5 | 83
RPMI 5 mM glucose + 10% dialyzed FBS, 46.1 µM | 6.16 | 39.6 | 49.5

AUC of viability dose-response curve
Settings | NOMO1 [4] | P12-Ichikawa [5] | SEM cells [6]
HPLM + 10% dialyzed FBS | 399 | 456 | 384
RPMI 5 mM glucose + 10% FBS | 364 | 422 | 426
RPMI 5 mM glucose + 10% dialyzed FBS | 370 | 411 | 432
